Laboratory results reported in patent publication US20260356856A1, “KRAS G12S AND G12C INHIBITORS” (MIRATI THERAPEUTICS, INC., priority 2023, published 2026).

Columns and labels:
KRas WT = target: T1, KRas WT (Homo sapiens, UniProt P01116); test: KRas binding assay, TR-FRET displacement of Cy5 labelled tracer; conditions: 60-minute incubation at room temperature, 1% DMSO, pH 7.5
T1 construct: Biotinylated KRas (corresponding to amino acids 1-169, produced at Accelegan Inc.); biotin (biotinylated); purchased Accelegan Inc
Procedure, shortened: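 KRas aa 1-169, biotinylated; Tb-streptavidin donor; 1% DMSO final. Buffer: HEPES 50 mM (pH 7.5), MgCl2 5 mM, DTT 1 mM, Tween-20 0.005%. 60 min, RT. IC50 from 4-parameter fit of POC.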

KRas G12C = target: T2, KRas G12C (Homo sapiens, UniProt P01116, G12C); test: as above; conditions: 60-minute incubation at room temperature, 1% DMSO, pH 7.5
T2 construct: Biotinylated KRas (corresponding to amino acids 1-169, produced at Accelegan Inc.); biotin (biotinylated); purchased Accelegan Inc
Procedure, shortened: (§1)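 Biotinylated KRas (residues 1-169) was incubated with tracer, terbium-streptavidin and compound at 1% DMSO final in 50 mM HEPES pH 7.5 containing 5 mM MgCl2, 0.005% Tween-20 and 1 mM DTT. The plate was read after 60 min at room temperature, and percent-of-control data were fit to a 4-parameter IC50 equation.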

KRas G12S = target: T3, KRas G12S (Homo sapiens, UniProt P01116, G12S); test: as above; conditions: 60-minute incubation at room temperature, 1% DMSO, pH 7.5
T3 construct: Biotinylated KRas (corresponding to amino acids 1-169, produced at Accelegan Inc.); biotin (biotinylated); purchased Accelegan Inc
Procedure, shortened: as §1

[1] = target: T4, KRas-mediated phosphorylation of ERK in MKN1 cells (Homo sapiens, UniProt P01116); test: Inhibition of KRas-mediated phosphorylation of ERK (HTRF), MKN1 cells; assay type: cell-based; conditions: MKN1 cells (KRas WT); HTRF pERK; 3 h incubation
T4 construct: pERK HTRF read-out
Procedure: Inhibition of KRas Phosphorylation of ERK (HTRF) by Exemplary Compounds of Formula (Ia) or (Ib)
Cisbio HTRF Advanced pERK Assay Catalog #64AERPEH • Cells: MKN1, PSN1 • Procedure: • 1. Day 1: Seed 6,000 cells/well −25 μl/well in 384-well white solid bottom plate; RPM1_10% FBS. Incubate overnight at 37 °C/5% CO2. • 2.

[2] = target: T5, KRas-mediated phosphorylation of ERK in A549 cells (Homo sapiens, UniProt P01116, G12S); test: Inhibition of KRas-mediated phosphorylation of ERK (HTRF), A549 cells; assay type: cell-based; conditions: HTRF pERK, 3 h incubation
T5 construct: pERK HTRF read-out

[3] = target: T6, KRas-mediated phosphorylation of ERK in H358 cells (Homo sapiens, UniProt P01116, G12C); test: Inhibition of KRas-mediated phosphorylation of ERK (HTRF), H358 cells; assay type: cell-based; conditions: HTRF pERK, 3 h incubation
T6 construct: pERK HTRF read-out
T6 sequence (P01116 1-188 isoform P01116-2 G12C): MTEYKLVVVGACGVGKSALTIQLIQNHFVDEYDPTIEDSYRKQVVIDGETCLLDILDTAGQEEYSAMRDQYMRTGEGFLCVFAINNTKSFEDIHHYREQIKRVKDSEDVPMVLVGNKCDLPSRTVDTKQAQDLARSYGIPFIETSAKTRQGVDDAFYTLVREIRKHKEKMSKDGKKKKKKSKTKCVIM

T4 sequence (P01116 1-188 isoform P01116-2): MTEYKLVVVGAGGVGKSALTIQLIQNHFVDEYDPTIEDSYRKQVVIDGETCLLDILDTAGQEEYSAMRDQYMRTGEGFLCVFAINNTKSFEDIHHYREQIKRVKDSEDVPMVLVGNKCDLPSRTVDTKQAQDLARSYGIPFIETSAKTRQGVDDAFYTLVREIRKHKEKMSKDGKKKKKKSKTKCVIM
T3 sequence (P01116 1-169 isoform P01116-2 G12S): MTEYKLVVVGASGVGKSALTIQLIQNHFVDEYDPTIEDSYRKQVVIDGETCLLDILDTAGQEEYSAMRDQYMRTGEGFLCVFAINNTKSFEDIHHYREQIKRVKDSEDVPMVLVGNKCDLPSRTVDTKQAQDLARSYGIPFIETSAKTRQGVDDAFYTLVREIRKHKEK
T1 sequence (P01116 1-169 isoform P01116-2): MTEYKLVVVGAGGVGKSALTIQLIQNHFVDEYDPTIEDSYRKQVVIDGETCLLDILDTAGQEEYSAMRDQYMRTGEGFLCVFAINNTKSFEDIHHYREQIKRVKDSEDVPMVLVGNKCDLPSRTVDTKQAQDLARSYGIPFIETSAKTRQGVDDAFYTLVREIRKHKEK
T5 sequence (P01116 1-188 isoform P01116-2 G12S): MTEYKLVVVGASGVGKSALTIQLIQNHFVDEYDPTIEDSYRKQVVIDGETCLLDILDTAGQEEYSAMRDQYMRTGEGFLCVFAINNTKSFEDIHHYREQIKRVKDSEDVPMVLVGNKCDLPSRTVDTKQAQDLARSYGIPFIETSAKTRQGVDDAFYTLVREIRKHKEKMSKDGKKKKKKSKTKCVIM
T2 sequence (P01116 1-169 isoform P01116-2 G12C): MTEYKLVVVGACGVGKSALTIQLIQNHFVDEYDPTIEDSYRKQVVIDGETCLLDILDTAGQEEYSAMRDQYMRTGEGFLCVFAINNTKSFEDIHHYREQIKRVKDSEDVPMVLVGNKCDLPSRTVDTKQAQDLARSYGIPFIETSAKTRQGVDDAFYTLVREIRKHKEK

| SMILES | IC50 (KRas WT) [nM] | IC50 (KRas G12C) [nM] | IC50 (KRas G12S) [nM] | IC50 [1] [nM] | IC50 [2] [nM] | IC50 [3] [nM] |
| --- | --- | --- | --- | --- | --- | --- |
| Cc1ccn(C(=O)CCN(C)c2nc(OC[C@@]34CCCN3C[C@H](F)C4)nc3c(F)c(-c4ccc(F)c5sc(N)c(C#N)c45)c(Cl)cc23)n1 [Example 176, 2-amino-4-(6-chloro-8-fluoro-2-(((2R,7aS)-2-fluorotetrahydro-1H-pyrrolizin-7a(5H)-yl)methoxy)-4-(methyl(3-(3-methyl-1H-pyrazol-1-yl)-3-oxopropyl)amino)quinazolin-7-yl)-7-fluorobenzo[b]thiophene-3-carbonitrile] | 12 | 3 | 5 | 250 | 388 | 295 |
| CCc1c(F)ccc2cc(O)cc(-c3ncc4c(N5CCCCC(C(=O)N(C)C(C)=O)CC5)nc(OC[C@@]56CCCN5C[C@H](F)C6)nc4c3F)c12 (stereo partly drawn) [Example 275, N-acetyl-1-(7-(8-ethyl-7-fluoro-3-hydroxynaphthalen-1-yl)-8-fluoro-2-(((2R,7aS)-2-fluorotetrahydro-1H-pyrrolizin-7a(5H)-yl)methoxy)pyrido[4,3-d]pyrimidin-4-yl)-N-methylazocane-4-carboxamide] | 47 | 52 | 15 | 437 | 58 | 164 |
| CCc1c(F)ccc2cc(O)cc(-c3ncc4c(N5CCC(C(=O)OC)CC5)nc(OC[C@@]56CCCN5C[C@H](F)C6)nc4c3F)c12 [Example 16, methyl 1-(7-(8-ethyl-7-fluoro-3-hydroxynaphthalen-1-yl)-8-fluoro-2-(((2R,7aS)-2-fluorotetrahydro-1H-pyrrolizin-7a(5H)-yl)methoxy)pyrido[4,3-d]pyrimidin-4-yl)piperidine-4-carboxylate] | 23 | 54 | 44 | 70 | 337 | 428 |
| CCc1c(F)ccc2cc(O)cc(-c3ncc4c(N(C)CC(C)CC(=O)N(C)C(C)=O)nc(OC[C@@]56CCCN5C[C@H](F)C6)nc4c3F)c12 (stereo partly drawn) [Example 283, N-acetyl-4-((7-(8-ethyl-7-fluoro-3-hydroxynaphthalen-1-yl)-8-fluoro-2-(((2R,7aS)-2-fluorotetrahydro-1H-pyrrolizin-7a(5H)-yl)methoxy)pyrido[4,3-d]pyrimidin-4-yl)(methyl)amino)-N,3-dimethylbutanamide] | 103 | 183 | 134 | 323 | 701 | 1320 |
| CCc1c(F)ccc2cc(O)cc(-c3ncc4c(N5CC[C@@H](C(=O)n6ccc(C)n6)[C@@H](C)C5)nc(OC[C@@]56CCCN5C[C@H](F)C6)nc4c3F)c12 [Example 79, ((3R,4R)-1-(7-(8-ethyl-7-fluoro-3-hydroxynaphthalen-1-yl)-8-fluoro-2-(((2R,7aS)-2-fluorotetrahydro-1H-pyrrolizin-7a(5H)-yl)methoxy)pyrido[4,3-d]pyrimidin-4-yl)-3-methylpiperidin-4-yl)(3-methyl-1H-pyrazol-1-yl)methanone] | 246 | 26 | 594 | 1450 | 785 | 23 |
| N#Cc1c(N)sc2c(F)ccc(-c3c(Cl)cc4c(N5CCC(C(=O)Oc6cccnc6)CC5)nc(OC[C@@]56CCCN5C[C@H](F)C6)nc4c3F)c12 [Example 296, pyridin-3-yl 1-(7-(2-amino-3-cyano-7-fluorobenzo[b]thiophen-4-yl)-6-chloro-8-fluoro-2-(((2R,7aS)-2-fluorotetrahydro-1H-pyrrolizin-7a(5H)-yl)methoxy)quinazolin-4-yl)piperidine-4-carboxylate] | 30 | 3 | 3 | 318 | 16 | 15 |
| CC(=O)N(C)C(=O)CCCN(C)c1nc(OC[C@@]23CCCN2C[C@H](F)C3)nc2c(F)c(-c3ccc(F)c4sc(N)c(C#N)c34)c(Cl)cc12 (atropisomer, axis not shown; (aS)) [Example 260, N-acetyl-4-(((S)-7-(2-amino-3-cyano-7-fluorobenzo[b]thiophen-4-yl)-6-chloro-8-fluoro-2-(((2R,7aS)-2-fluorotetrahydro-1H-pyrrolizin-7a(5H)-yl)methoxy)quinazolin-4-yl)(methyl)amino)-N-methylbutanamide] | 4 | < 2 | < 2 | 36 | 6 | 18 |
| CCc1c(F)ccc2cc(O)cc(-c3ncc4c(N5CCCC(C(=O)n6ccc(C)n6)CCC5)nc(OC[C@@]56CCCN5C[C@H](F)C6)nc4c3F)c12 [Example 54, (1-(7-(8-ethyl-7-fluoro-3-hydroxynaphthalen-1-yl)-8-fluoro-2-(((2R,7aS)-2-fluorotetrahydro-1H-pyrrolizin-7a(5H)-yl)methoxy)pyrido[4,3-d]pyrimidin-4-yl)azocan-5-yl)(3-methyl-1H-pyrazol-1-yl)methanone] | 483 | 502 | 266 | 2420 | 334 | 1420 |
| Cc1ccn(C(=O)CCCCNc2nc(OC[C@@]34CCCN3C[C@H](F)C4)nc3c(F)c(-c4ccc(F)c5sc(N)c(C#N)c45)c(Cl)cc23)n1 [Example 262, 2-amino-4-(6-chloro-8-fluoro-2-(((2R,7aS)-2-fluorotetrahydro-1H-pyrrolizin-7a(5H)-yl)methoxy)-4-((5-(3-methyl-1H-pyrazol-1-yl)-5-oxopentyl)amino)quinazolin-7-yl)-7-fluorobenzo[b]thiophene-3-carbonitrile] | 25 | 15 | 25 | 593 | 381 | 1170 |
| N#Cc1c(N)sc2c(F)ccc(-c3c(Cl)cc4c(N5CCC(C(=O)N6CCCC6)CC5)nc(OC[C@@]56CCCN5C[C@H](F)C6)nc4c3F)c12 [Example 246, 2-amino-4-(6-chloro-8-fluoro-2-(((2R,7aS)-2-fluorotetrahydro-1H-pyrrolizin-7a(5H)-yl)methoxy)-4-(4-(pyrrolidine-1-carbonyl)piperidin-1-yl)quinazolin-7-yl)-7-fluorobenzo [b]thiophene-3-carbonitrile] | 8 | 13 | 14 | 24 | 223 | 167 |
| CCc1c(F)ccc2cc(O)cc(-c3ncc4c(N5CCC(C(=O)n6cc(N(C)C)cn6)CC5)nc(OC[C@@]56CCCN5C[C@H](F)C6)nc4c3F)c12 [Example 64, (4-(dimethylamino)-1H-pyrazol-1-yl)(1-(7-(8-ethyl-7-fluoro-3-hydroxynaphthalen-1-yl)-8-fluoro-2-(((2R,7aS)-2-fluorotetrahydro-1H-pyrrolizin-7a(5H)-yl)methoxy)pyrido[4,3-d]pyrimidin-4-yl)piperidin-4-yl)methanone] | 32 | 13 | 40 | 4500 | 119 | 4600 |
